From US10357486B2, “Treatment of cognitive impairment with PDE4 inhibitor” (Universiteit Maastricht, priority 2013, dated 2019)
Entries after “also recorded” stand apart in the source; their conditions may differ. Marks after values point to notes of the source that are not given here.

Key:
[1] = tested on: 60 to 80 years old subjects (Impaired Elderly and Healthy Elderly); assay: Bond-Lader Visual Analogue Scales (BL-VAS) in 60 to 80 years old subjects, interim analysis; assay type: in vivo, human; conditions: low dose (100 mcg); at 45 min
Description: The study is conducted according to a double-blind, placebo-controlled, four-period cross-over design. Forty healthy subjects, both male and female within an age range of 60 to 80 years are planned to be included in the study in 2 groups: 1) 20 subjects with a memory performance between 1-2 Standard Deviation below the average for their age, gender, and educated level (Impaired Elderly) and 2) 20 subjects with age (±3 years), gender, and educational level matched (in order to speed up the study matching was stopped after the interim analysis) with an average memory performance between 0.5 Standard Deviation below and 0.5 Standard Deviation above from normative values (Healthy Elderly). Classification in terms of impaired or healthy elderly will be determined by a one-off testing of memory performance using the Rey Verbal Learning Task (Rey A; L'examen psychologique dans les cas d'encephalopathy traumatique 1958 Paris; Presses Universitaire de France; or Van der Elst et al; J Int Neuropsychol Soc 2005, 11 (3), pp 290-302) according to fully standardized procedures as applied in The Maastricht Aging Study (Jolles et al; Maastricht Aging Study; determinants of cognitive aging; Maastricht, The Netherlands, Neuropsych Publishers 1995). […]

[2] = tested on: scopolamine induced memory deficit in male Wistar rats; assay: Object recognition task (ORT), scopolamine induced memory deficit; assay type: in vivo; conditions: for d2 (discrimination index): 1 h retention, mean (SEM)
Description: The objective of this study is to evaluate the efficacious dose range of roflumilast with regard to cognitive improvement effects by using scopolamine induced memory deficit on object memory performance in male Wistar rats. Memory acquisition processes are investigated using the object recognition test (ORT).
Maintenance of Animals: Sixteen 3-4 month old male Wistar rats (Charles River, Sulzfeld, Germany) were used for the study. All animals were housed individually in standard green line Tecniplast IVC cages on stardust bedding. The animals were housed on a reversed 12/12 h light/dark cycle (lights on from 07:00 pm to 07:00 am) and had free access to food and water. The rats were housed and tested in the same room. A radio, playing softly, provided background noise in the room. All testing was performed between 09:00 am and 06:00 pm.
Preparation of Compounds: Drugs were prepared daily, except as indicated otherwise. Roflumilast (Takeda, Konstanz, Germany, MW 403.21) was dissolved in 98% methylcellulose solution (0.5% methylcellulose) and 2% Tween 80. Roflumilast in doses of 0 (vehicle), 0.0001, 0.0003, 0.001, 0.003, 0.01 and 0.03 mg/kg was administered intraperitoneally (ip, injection volume 1 ml/kg). Scopolamine (in form of scopolamine hydrobromide) was dissolved in saline (0.9% NaCl). Scopolamine hydrobromide was administered intraperitoneally at a dose of 0.1 mg/kg (ip, injection volume 1 ml/kg). Scopolamine and roflumilast were administered 30 min before T1.
Object Recognition Task in Rats: The ORT was performed as described elsewhere (Ennaceur and Delaceur, 1988, Behav Brain Res, Vol 31, pp 47-59; Akkerman et al; 2012, Behav Brain Res, Vol 232, pp 335-347). The apparatus consisted of a circular arena, 83 cm in diameter. The back half of the 40 cm high wall was made of grey PVC and the front was made of transparent PVC. Fluorescent red tubes and a light bulb provided a constant illumination of about 20 lux on the floor of the apparatus. The light intensity was equal in the different parts of the apparatus.
Two objects were placed in symmetrical positions at the mid-line between the gray and transparent halves of the arena, about ten centimeters away from wall. Four different sets of objects were available: 1) a standard 1 L brown transparent glass bottle (diameter 10 cm, height 22 cm) filled with water, 2) a metal cube (10.0×5.0×7.5 cm) with two holes (diameter 1.9 cm), 3) a cone consisting of a gray PVC base (maximal diameter 18 cm) with a collar on top made of brass (total height 16 cm), and 4) an aluminium cube with a tapering top (13.0×8.0×8.0 cm). Objects were presented to the animals in a balanced manner to avoid object or place biases. Rats were unable to displace the objects.
A test session comprised two trials, each with durations of 3 min. During the learning trial (T1) the apparatus contains two identical objects (object al and a2). Rats were always introduced into the apparatus with their nose towards the transparent wall segment (i.e. facing outwards to the front of the arena). Subsequently, rats were put back in its home cage for a 1 h interval. After the retention interval, rats were put back into the arena for the […] (T2). In T2, the two objects from T1 were replaced by one identical copy (a3) and a different novel object (b). The times spent in exploring each object during T1 and T2 were recorded manually on a personal computer.
Exploration was defined in the following manner: directing the nose to the object at a distance of no more than 2 cm and/or touching the object with the nose. Sitting on the object was not considered as exploratory behavior. In order to avoid the presence of olfactory cues, the objects were thoroughly cleaned with a 70% ethanol solution before each trial.
Prior to compound testing, the animals were handled for 5 min on 2 consecutive days and allowed to explore the ORT arena, also for 5 min. […]

O=C(Nc1c(Cl)cncc1Cl)c1ccc(OC(F)F)c(OCC2CC2)c1 [roflumilast, N-(3,5-dichloropyridin-4-yl)-3-cyclopropylmethoxy-4-difluoromethoxybenzamide]
(subjective) alertness in comparison with placebo, based on BL-VAS scores [1]: significantly higher | d2 value compared to the vehicle condition (post-hoc Bonferroni t-test) ([2]; 0.0001 mg/kg ip + scopolamine): significantly lower | d2 value compared to the scopolamine condition (post-hoc Bonferroni t-test) ([2]; 0.003 mg/kg ip + scopolamine): significantly higher | d2 value compared to the scopolamine condition (post-hoc Bonferroni t-test) ([2]; 0.01 mg/kg ip + scopolamine): significantly higher | d2 value compared to the scopolamine condition (post-hoc Bonferroni t-test) ([2]; 0.03 mg/kg ip + scopolamine): significantly higher | d2 (discrimination index) ([2]; roflumilast 0.0001 mg/kg ip + scopolamine 0.1 mg/kg ip): 0.05 (0.05) | d2 (discrimination index) ([2]; roflumilast 0.0003 mg/kg ip + scopolamine 0.1 mg/kg ip): 0.16 (0.06) # | d2 (discrimination index) ([2]; roflumilast 0.001 mg/kg ip + scopolamine 0.1 mg/kg ip): 0.27 (0.06) ### | d2 (discrimination index) ([2]; roflumilast 0.003 mg/kg ip + scopolamine 0.1 mg/kg ip): 0.43 (0.06) ### | d2 (discrimination index) ([2]; roflumilast 0.01 mg/kg ip + scopolamine 0.1 mg/kg ip): 0.34 (0.06) ### | d2 (discrimination index) ([2]; roflumilast 0.03 mg/kg ip + scopolamine 0.1 mg/kg ip): 0.30 (0.07) ### | effect on memory function in rats treated with scopolamine (ORT) ([2]; single ip dose 0.0001 mg/kg, 0.0001 mg/kg): No effect | effect on memory function in rats treated with scopolamine (ORT) ([2]; single ip dose 0.0003 mg/kg, 0.0003 mg/kg): intermediate memory improvement; also recorded: increasingly less efficacy | effect on memory function in rats treated with scopolamine (ORT) ([2]; single ip dose 0.001 mg/kg, 0.001 mg/kg): intermediate memory improvement; also recorded: increasingly less efficacy | effect on memory function in rats treated with scopolamine (ORT) ([2]; single ip dose 0.003 mg/kg, 0.003 mg/kg): fully restore memory function | effect on memory function in rats treated with scopolamine (ORT) ([2]; single ip dose 0.01 mg/kg): increasingly less efficacy | effect on memory function in rats treated with scopolamine (ORT) ([2]; single ip dose 0.03 mg/kg): increasingly less efficacy
